Results on 14 molecules are retold here after US8263649B2, “Benzofuran type derivatives, a composition comprising the same for treating or preventing cognitive dysfunction and the use thereof” (Medifron DBT Co., Ltd., priority 2006, dated 2012).

Data set [1] has as its system HT22 mouse neuronal cell line treated with aggregated beta amyloid 25-35. Nature of the data set: Inhibition test of beta amyloid toxicity (MTT). Conditions: HT22 cells, 25 μm aggregated beta amyloid 25-35, 18 hours. Type of data set: cell-based. How it is done:
To determine the inhibitory activity of the compounds prepared in Examples on beta-amyloid toxicity, following test was performed according to the procedure disclosed in the literature (Gillardon, F. et al., Brain Research, 706(1), pp. 169-172, 1996).
HT22 mouse neuronal cell line was incubated in DMEM (Dulbecco's Modified Eagle's Medium, Gibco-BRL) medium supplemented with 10% FBS (Fetal Bovine Serum, Hyclone) and 1% penicillin/streptomycin (Sigma Co.). Prior to test, HT22 cell was incubated on 96 well plates with a density of 5×10^3 cell/well and further incubated in serum free DMEM medium for 1 hour before the treatment of test sample. Various concentration of compounds prepared in Examples used as a test sample was added thereto and incubated for 1 hour. Aggregated beta amyloid 25-35 (US peptide) was treated thereto to the concentration of 25 μm and incubated for 18 hours to induce cell necrosis. 5 mg/ml of MTT (3-(4,5-dimethyl-2-thiazolyl)-2,5-diphenyl-2H-tetrazolium bromide) solution was added each well with 15 μl/well and the well was incubated for 4 hours. Dissolving buffer solution (10% SDS, 50% dimethyl formamide, pH 4.7) was added to each well with 100 μl/well and reacted for overnight. 18 hours after the reaction, the absorbance of solution was determined by microplate reader (SAFIRE, TECAN) at 570 nm/630 nm wavelength (Gillardon, F. et al., Brain Research, 706(1) pp 169-172, 1996).

Another data set deals with T1, beta amyloid 1-42 (Homo sapiens, UniProt P05067).
T1 construct: Synthetic beta amyloid 1-42 (BACHEM); purchased BACHEM; host or cells: synthetic peptide
T1 sequence (P05067 672-713): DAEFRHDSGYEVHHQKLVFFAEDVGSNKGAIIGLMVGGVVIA
Nature of the data set: Inhibition test of beta amyloid aggregation (Thioflavin T fluorescence). Type of data set: biochemical. The conditions noted are these: FIG. 1. How it is done: Synthetic beta amyloid 1-42 (BACHEM) was dissolved in DMSO in order to 250 μm solution and diluted with PBS into 1/10 on fluorescent black plate to induce aggregation. By comparing with inhibition activity of the tanshinone compounds prepared in Example 1 on beta amyloid aggregation, the test sample showing more than 50% inhibition activity at 10 μg/ml was chosen to use and added to react for 1 hour at room temperature. ThT (Thioflavin T) was diluted with 50 mM glycine buffer solution and the diluted solution was added to each well by 150 μl/well. The absorbance was determined by microplate reader (SAFIRE, TECAN) at 450 nm excitation wavelength/480 nm emission wavelength and the inhibition activity of the test sample on beta amyloid aggregation was transformed into IC50.

Take `COC(=O)Cc1ccc2oc(-c3ccc(OC)c(OC)c3)cc2c1` [Compound 32a, [2-(3,4-dimethoxyphenyl)-benzofuran-5-yl]acetic acid methyl ester]: the melting point (in general, the temperature of the solid-liquid transition) was 119 °C.

Consider `COCCCc1ccc2oc(-c3ccc(O)c(OC)c3)c(SC)c2c1` [Compound 15b, 2-methoxy-4-[5-(3-methoxy-propyl)-3-methylsulfanyl-benzofuran-2yl]-phenol], for which the “inhibition effect on beta-amyloid toxicity” value in data set [1] is “potent inhibition effect”. Besides, the “inhibitory effect on the aggregation of beta amyloid” value against beta amyloid 1-42 is “potent inhibition effect”. For the molecule `COC(=O)Cc1ccc2oc(-c3ccc(OC)c(OC)c3)c(SC)c2c1` [Compound 31a, [2-(3,4-dimethoxy-phenyl)-3-(methylsulfanyl)-benzofuran-5-yl)acetic acid methyl ester], the melting point stood at 91 °C. Same read-out and setting: the value for `COCCc1ccc2oc(-c3ccc(OCOC)c(OC)c3)c(SC)c2c1` [Compound 14a, 5-(2-methoxy-ethyl)-2-(3-methoxy-4-methoxymethoxy-phenyl)-3-methylsulfanyl-benzofuran] was 70 °C; that for `COc1ccc(-c2oc3ccc(CCO)cc3c2SC)cc1OC` [Compound 39a, 2-[2-(3,4-dimethoxy-phenyl)-3-methylsulfanyl-benzofuran-5-yl]-ethanol] was 96 °C; that for `COc1ccc(-c2oc3ccc(CC(=O)N4CCN(Cc5ccccc5)CC4)cc3c2SC)cc1OC` was 70 °C.

Take `COc1ccc(-c2oc3ccc(CC(=O)O)cc3c2SC)cc1OC` [Compound 33a, [2-(3,4-dimethoxy-phenyl)-3-methylsulfanyl-benzofuran-5-yl]-acetic acid]: the melting point was 165 °C. On the same count and under the same terms, the value for `COCCc1ccc2oc(-c3ccc(O)c(OC)c3)cc2c1` [Compound 16a, 2-methoxy-4-[5-(2-methoxy-ethyl)-benzofuran-2yl]-phenol] was 180 °C; that for `COc1ccc(-c2oc3ccc(CC(=O)N4CCN(c5ccccc5)CC4)cc3c2SC)cc1OC` [Compound 37a, 2-[2-(3,4-dimethoxy-phenyl)-3-methylsulfanyl-benzofuran-5-yl)-1-(4-phenyl-piperazin-1-yl)-ethanone] was 160 °C. Same read-out and setting: the value for `COCCc1ccc2oc(-c3ccc(OC)c(OC)c3)c(SC)c2c1` [Compound 17a, 2-(3,4-dimethoxy-phenyl)-5-(2-methoxy-ethyl)-3-methylsulfanyl-benzofuran] was 61 °C. As for `COCCc1ccc2oc(-c3ccc(O)c(OC)c3)c(SC)c2c1` [Compound 15a, 2-methoxy-4-[5-(2-methoxy-ethyl)-3-methylsulfanyl-benzofuran-2-yl]-phenol], the melting point is 67 °C. Moreover, the “inhibition effect on beta-amyloid toxicity” value in data set [1] is “potent inhibition effect”. In addition, the “inhibitory effect on the aggregation of beta amyloid” value on beta amyloid 1-42 is listed as “potent inhibition effect”. The molecule `COc1ccc(-c2cc3cc(CC(=O)O)ccc3o2)cc1OC` [Compound 34a, [2-(3,4-dimethoxy-phenyl)-benzofuran-5-yl]-acetic acid] displayed a melting point of 202 °C. Same read-out and setting: the value for `COc1ccc(-c2cc3cc(CCO)ccc3o2)cc1OC` [Compound 40a, 2-[2-(3,4-dimethoxy-phenyl)-benzofuran-5-yl]-ethanol] was 122 °C; that for `COCCc1ccc2oc(-c3ccc(OC)c(OC)c3)cc2c1` [Compound 18a, 2-(3,4-dimethoxy-phenyl)-5-(2-methoxy-ethyl)-benzofuran] was 81 °C.
